From ChEMBL document CHEMBL5046225, “Discovery and Optimization of Orally Bioavailable Phthalazone and Cinnolone Carboxylic Acid Derivatives as S1P2 Antagonists against Fibrotic Diseases” (J Med Chem, 2021)
Converted amounts (≈) assume the structure as drawn.

Key:
[1] = Lipophilicity, logD of the compound at pH 7.4 by chromatographic method; conditions: buffer
[2] = molecular target: T1, Sphingosine 1-phosphate receptor 2 (Homo sapiens, UniProt O95136); test: Antagonist activity at human S1P2 receptor expressed in CHO cells assessed as inhibition of calcium flux
T1 sequence (O95136 whole entry): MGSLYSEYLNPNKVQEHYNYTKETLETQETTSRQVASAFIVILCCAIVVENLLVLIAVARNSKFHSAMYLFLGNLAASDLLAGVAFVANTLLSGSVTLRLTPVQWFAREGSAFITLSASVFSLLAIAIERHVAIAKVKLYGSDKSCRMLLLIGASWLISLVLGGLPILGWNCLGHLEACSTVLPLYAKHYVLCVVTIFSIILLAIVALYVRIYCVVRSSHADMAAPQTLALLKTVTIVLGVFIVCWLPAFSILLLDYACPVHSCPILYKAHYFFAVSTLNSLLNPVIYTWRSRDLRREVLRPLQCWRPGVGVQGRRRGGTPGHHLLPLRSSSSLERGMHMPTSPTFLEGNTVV

[3] = molecular target: T1, Sphingosine 1-phosphate receptor 2; test: Agonist activity at human S1P2 receptor expressed in CHO cells assessed as increase in calcium flux
[4] = molecular target: T1, Sphingosine 1-phosphate receptor 2; test: Antagonist activity at human S1P2 receptor expressed in CHO cells assessed as inhibition of [35S]GTPgammaS binding
[5] = molecular target: T1, Sphingosine 1-phosphate receptor 2; test: Displacement of sphingosine D-erythro [3-3H] I- phosphate from human S1P2 receptor expressed in CHO cell membrane
[6] = molecular target: Sphingosine 1-phosphate receptor 1 (Homo sapiens, UniProt P21453); test: Antagonist activity at human S1P1 receptor expressed in CHO cells assessed as inhibition of calcium flux; assay type: functional, cell-based
Sequence of Sphingosine 1-phosphate receptor 1 (P21453 whole entry): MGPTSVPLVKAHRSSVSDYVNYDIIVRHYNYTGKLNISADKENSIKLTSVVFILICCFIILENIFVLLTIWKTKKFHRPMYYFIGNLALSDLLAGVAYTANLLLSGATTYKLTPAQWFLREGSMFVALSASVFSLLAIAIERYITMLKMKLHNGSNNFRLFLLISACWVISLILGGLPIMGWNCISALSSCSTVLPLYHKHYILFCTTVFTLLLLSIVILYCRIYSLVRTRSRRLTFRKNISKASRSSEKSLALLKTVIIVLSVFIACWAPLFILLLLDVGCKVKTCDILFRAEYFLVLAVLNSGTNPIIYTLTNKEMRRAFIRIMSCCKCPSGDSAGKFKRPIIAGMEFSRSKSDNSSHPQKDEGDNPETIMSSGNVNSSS

PXR = molecular target: T2, PXR (Homo sapiens, UniProt O75469); test: Activation of PXR in human DPX2 cells at 10 uM incubated for 24 hrs relative to control; assay type: ADME, cell-based; conditions: read-out: Activity
T2 sequence (O75469 whole entry): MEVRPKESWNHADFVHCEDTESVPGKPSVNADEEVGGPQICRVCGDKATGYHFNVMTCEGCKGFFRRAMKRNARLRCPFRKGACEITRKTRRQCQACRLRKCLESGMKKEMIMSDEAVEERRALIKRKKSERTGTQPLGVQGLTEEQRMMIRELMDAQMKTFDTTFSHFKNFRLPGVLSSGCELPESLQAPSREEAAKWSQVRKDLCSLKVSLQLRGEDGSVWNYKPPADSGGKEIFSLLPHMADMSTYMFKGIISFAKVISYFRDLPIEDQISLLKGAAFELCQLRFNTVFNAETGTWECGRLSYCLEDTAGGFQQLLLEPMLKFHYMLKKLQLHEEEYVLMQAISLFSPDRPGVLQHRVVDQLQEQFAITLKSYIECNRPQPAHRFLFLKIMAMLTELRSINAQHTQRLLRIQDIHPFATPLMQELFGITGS

CYP450 = CYP450 (Homo sapiens, UniProt P04798+P05177+P05181+P08684+P10632+P10635+P11509+P11712+P13584+P20813+P20815+P20853+P24462+P24903+P33260+P33261+P51589+P78329+P98187+Q02928+Q08477+Q16678+Q16696+Q5TCH4+Q6VVX0+Q7Z449+Q8TAV3+Q96SQ9+Q9HB55); test: Inhibition of CYP450 in human liver microsomes; assay type: ADME
Cytochrome P450 3A4 = Cytochrome P450 3A4 (Homo sapiens, UniProt P08684); test: Induction of CYP3A4 in human cryopreserved hepatocytes assessed as mRNA expression at 10 uM incubated for 72 hrs relative to control; assay type: ADME, cell-based, Hepatocyte
Sequence of Cytochrome P450 3A4 (P08684 whole entry): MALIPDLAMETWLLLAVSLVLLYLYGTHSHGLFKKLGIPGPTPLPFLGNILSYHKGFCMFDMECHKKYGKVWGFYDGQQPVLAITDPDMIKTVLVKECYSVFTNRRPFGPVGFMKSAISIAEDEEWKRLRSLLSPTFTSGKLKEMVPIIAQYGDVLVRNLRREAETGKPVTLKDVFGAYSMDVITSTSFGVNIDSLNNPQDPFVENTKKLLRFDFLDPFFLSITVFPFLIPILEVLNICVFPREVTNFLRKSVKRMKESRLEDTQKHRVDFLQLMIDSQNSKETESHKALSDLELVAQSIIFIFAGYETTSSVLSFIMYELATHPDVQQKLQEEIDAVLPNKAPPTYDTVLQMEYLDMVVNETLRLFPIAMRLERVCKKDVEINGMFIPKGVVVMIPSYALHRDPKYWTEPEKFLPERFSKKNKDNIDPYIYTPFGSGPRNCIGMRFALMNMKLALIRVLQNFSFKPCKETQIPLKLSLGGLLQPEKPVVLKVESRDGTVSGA

[7] = molecular target: T1, Sphingosine 1-phosphate receptor 2; test: Antagonist activity at S1P2 (unknown origin); assay type: functional
[8] = Volume of distribution at steady state in CD1 mouse at 1 mg/kg, iv measured up to 24 hrs by LC-MS/MS analysis; conditions: in vivo
[9] = Half life in CD1 mouse at 1 mg/kg, iv measured up to 24 hrs by LC-MS/MS analysis; conditions: in vivo
[10] = molecular target: T1, Sphingosine 1-phosphate receptor 2
[11] = Efflux ratio of apparent permeability across apical to basolateral side in MDCK-MDR1 cells at 10 uM incubated for 1 hr by LC-MS/MS analysis; conditions: dog
cells = conditions: Homo sapiens, HFL1
[12] = Unbound plasma concentration in CD1 mouse at 5 mg/kg, po or 1 mg/kg, iv measured up to 24 hrs by LC-MS/MS analysis
[13] = Apparent permeability across apical to basolateral side in MDCK-MDR1 cells at 10 uM incubated for 1 hr by LC-MS/MS analysis; conditions: dog
[14] = Apparent permeability across apical to basolateral side in human Caco-2 cells at pH 6.5 at 10 uM incubated for 60 mins by UHPLC analysis; conditions: Caco-2, pH 6.5
[15] = molecular target: T1, Sphingosine 1-phosphate receptor 2; remark: listed apart in the source
[16] = Thermodynamic solubility of compound at pH 7.4; conditions: buffer
[17] = Efflux ratio of apparent permeability across apical to basolateral side in human Caco-2 cells at pH 6.5 at 10 uM incubated for 60 mins by UHPLC analysis; conditions: Caco-2, pH 6.5
in vivo = conditions: CD1, mouse, po, 5 mg/kg

| chromatographic logD [1] | IC50 [2] [µM] | IC50 [3] [µM] | IC50 [4] [µM] | IC50 [5] [µM] | IC50 [6] [µM] | SMILES | further results |
| --- | --- | --- | --- | --- | --- | --- | --- |
| 1.13 | > 19.9 | > 23.3 | – | – | – | COc1ccc(NC(=O)Cc2nn(CC(=O)O)c(=O)c3ccccc23)c(OC)c1 | – |
| 2.13 | > 6.64 | > 23.3 | 17.7 | 10.7 | > 19.9 | COc1cc(OC)c(NC(=O)Cc2cn(CC(=O)O)c3ccccc23)cc1Cl | – |
| – | – | – | – | – | – | C[C@H](C(=O)O)n1nc(Cn2cc3cc(OCC4CC4)c(Cl)cc3n2)c2ccccc2c1=O | activity at 24 h, 10 µM (PXR): 5.7%; IC50 (CYP450): > 100 µM; Activity (Cytochrome P450 3A4): 4.4% |
| – | – | – | – | – | – | Cc1nn(C)c2nc(NNC(=O)Nc3cc(Cl)nc(Cl)c3)cc(C(C)C)c12 | IC50 [7]: 0.017 µM |
| 2.99 | 0.0034 | – | 0.051 | – | – | CC(C(=O)O)c1nn(Cc2cn3cc(OCC4CC4)c(C(F)(F)F)cc3n2)c2ccccc2c1=O (racemic) | Vd at 24 h [8]: 0.66 L/kg; half-life at 24 h [9]: 1.9 h; IC50 [10]: 0.056 µM; efflux ratio at 1 h, 10 µM [11]: 3.7; IC50 (cells): 0.0007 µM; fraction unbound at 24 h [12]: 0.007; Papp A→B at 1 h, 10 µM [13]: 2.5 ×10⁻⁶ cm/s; Papp A→B at 1 h, 10 µM [14]: 15 ×10⁻⁶ cm/s; IC50 [15]: 0.005 µM; solubility thermodynamic [16]: 221 µg/mL (≈ 454 µM); efflux ratio at 1 h, 10 µM [17]: 0.4; Cmax at 24 h (in vivo): 3520 ng/mL |
| – | 0.149 | – | 0.113 | – | – | CCOc1cc2cn(Cc3nn(CC(=O)O)c(=O)c4ccccc34)nc2cc1Cl | IC50 [10]: 1.62 µM; IC50 (cells): 0.034 µM; IC50 [15]: 0.023 µM |
| 1.86 | 3.36 | > 23.3 | 8.98 | 2.01 | > 19.9 | COc1cc(OC)c(NC(=O)Cn2nc(CC(=O)O)c3ccccc32)cc1Cl | – |
| – | – | – | – | – | > 19.9 | COc1cc(OC)c(NC(=O)Cc2nn(CC(=O)O)c(=O)c3ccccc23)cc1Cl | – |
| 5.42 | 0.199 | – | 0.473 | – | – | CCn1nc(CC(=O)Nc2ccc(OC(F)(F)F)c(Cl)c2)c2ccccc2c1=O | – |
| 5.91 | > 8.13 | > 23.3 | 19.2 | 3.79 | > 19.9 | COc1cc(OC)c(NC(=O)Cc2cn(C)c3ccccc23)cc1Cl | – |
